{"source": "patent US11950925B2", "about": "“Managing fluid levels in a patient and associated devices, systems, and methods” (REPRIEVE CARDIOVASCULAR, INC., priority 2019, dated 2024)", "key": {"[1]": {"details": "human, in vivo", "procedure": "(§1) Clinical data associated with embodiments of the present technology were obtained from patient tests conducted at the Tbilisi Heart and Vascular Center in Tbilisi, Georgia. 15 patients underwent fluid therapy in which diuretic(s) and hydration fluid were administered via the Reprieve Cardiovascular™ Second Generation System according to the methods described herein (“treatment group”). As described below, data obtained from the tests indicate that the net fluid loss and net sodium loss levels achieved represent a significant improvement over conventional methods for treating fluid overload conditions, and generally indicate that embodiments of the present technology produce improved diuresis and renal safety.\nEstimated glomerular filtration rate (eGFR) is a measure of kidney function and stage of kidney disease, and is based on patient factors including blood creatinine and a patient's age, body size, and gender.\nBlood pressure measurements of the patients in the treatment group serve as another indication that the fluid therapy was well received by the patients. For example, the average mean arterial pressure (MAP) of patients dropped from 90.1 mmHg to 88.2 mmHg at the time of patient discharge, and then to 87.2 mmHg after 30 days. Additionally, average systolic pressure of the patients dropped from 121 mmHg to 119 mmHg at the time of patient discharge, and then to 117 mmHg after 30 days."}, "[2]": {"assay": "Fluid overload therapy with diuretic (Lasix) and hydration fluid via the Reprieve Cardiovascular Second Generation System: diuresis, fluid, sodium and weight outcomes", "type": "in vivo, human", "procedure": "as §1\nTable 1 below indicates total urine output, net fluid loss (not including intake fluid), net fluid loss (including intake fluid), net sodium balance, and average diuretic (Lasix) dosage rate for each patient in the treatment group, as measured across a therapy timespan. […] Additionally, the average therapy timespan for the treatment group was 31 hours, whereas the average therapy timespan for standard of care therapy in the literature is approximately 5 days. […] Over the 30 days, none of the patients in the treatment group regained the weight that lost during therapy or were readmitted for additional treatment.\nAs also shown in Table 1, the average net sodium balance for all patients in the treatment group decreased by nearly 800 millimoles (mmol) over the therapy timespan. When normalized over a 24-hour period, the average and median net sodium balance was −14 grams (g) and −15 g respectively."}, "[3]": {"details": "average of 15 treatment group patients, average therapy timespan 31 h"}, "[4]": {"details": "individual patient, over that patient's therapy timespan, Lasix plus hydration fluid"}, "[5]": {"details": "normalized over a 24-hour period"}}, "note": "“And” between values parts separate entries of the source, which are not always exact repeats. Equal values may be shown once."}
{"molecule": "NS(=O)(=O)c1cc(C(=O)O)c(NCc2ccco2)cc1Cl", "note": "[Lasix, Furosemide]", "values": [{"measurement": "average decrease of eGFR", "setting": "[1]", "value": 1.6}, {"measurement": "average increase in creatinine", "setting": "[1]", "value": 0.11, "unit": "mg/dL"}, {"measurement": "tolerability of the fluid therapy", "setting": "[1]", "value": "generally well tolerated"}, {"measurement": "decrease of average net sodium balance", "setting": "[2]; all treatment group patients, over the therapy timespan", "value": "~800", "unit": "mmol"}, {"measurement": "Net Fluid Loss (including oral fluid intake), average", "setting": "[2]; [3]", "value": "−5,919 ml"}, {"measurement": "Net Fluid Loss (not including oral fluid intake), average", "setting": "[2]; [3]", "value": "−6,948 ml"}, {"measurement": "Total Urine, average", "setting": "[2]; [3]", "value": "12,744 ml"}, {"measurement": "Net Fluid Loss (including oral fluid intake)", "setting": "[2]; [4]", "value": "−4,868 ml and −4,247 ml and −2,232 ml and −10,787 ml and −1,021 ml and −6,276 ml and −5,625 ml and −3,636 ml and −10,299 ml and −3,724 ml and −9,156 ml and −6,583 ml and −6,186 ml and −10,301 ml and −3,844 ml"}, {"measurement": "Net Fluid Loss (not including oral fluid intake)", "setting": "[2]; [4]", "value": "−6,001 ml and −4,590 ml and −2,993 ml and −11,913 ml and −2,003 ml and −8,306 ml and −6,941 ml and −3,953 ml and −12,269 ml and −4,364 ml and −9,995 ml and −7,888 ml and −7,018 ml and −11,333 ml and −4,704 ml"}, {"measurement": "Total Urine", "setting": "[2]; [4]", "value": "14,158 ml and 11,456 ml and 6,329 ml and 19,728 ml and 3,726 ml and 12,966 ml and 12,179 ml and 6,496 ml and 20,184 ml and 8,328 ml and 17,784 ml and 14,629 ml and 12,930 ml and 21,155 ml and 9,162 ml"}, {"measurement": "average net fluid loss", "setting": "[2]; [5]", "value": "approximately 5.4 L"}, {"measurement": "average net sodium balance", "setting": "[2]; [5]", "value": -14, "unit": "g"}, {"measurement": "median net sodium balance", "setting": "[2]; [5]", "value": -15, "unit": "g"}, {"measurement": "increase in net fluid loss relative to control group", "setting": "[2]; treatment group vs conventional therapy (diuretic, no replacement hydration fluid), normalized 24-hour period", "value": "over 200%"}, {"measurement": "average weight loss", "setting": "[2]; treatment group, after 30 days", "value": 5.7, "unit": "kg"}, {"measurement": "average weight loss", "setting": "[2]; treatment group, at the time of patient discharge", "value": 6.8, "unit": "kg"}, {"measurement": "average net fluid loss (not including oral fluid intake)", "setting": "[2]; treatment group, over an average therapy timespan of 31 hours", "value": "~7", "unit": "L"}, {"measurement": "patients who regained the weight lost during therapy or were readmitted for additional treatment", "setting": "[2]; treatment group, over the 30 days", "value": "none"}]}
